Source: PubChem BioAssay AID256 (DTP/NCI, 2004)
Where “and” joins values, the source holds several entries; their conditions need not be identical. Identical values can stand only once. Inconclusive results and toxic doses are left out.

Test system: CD2F1 mice, L1210 leukemia ip, survival T/C
Assay: NCI In Vivo Anticancer Drug Screen. Data for tumor model L1210 Leukemia (intraperitoneal) in CD2F1 (CDF1) mice
Settings: higher = longer survival
Method in brief: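 Ratio T/C, where T is the treated-group value and C the vehicle-dosed control value, from mice implanted with a transplantable tumor.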

[1] = endpoint: mean survival time, dose: 12.5 mg/kg/injection, schedule: Q01DX009 (ip), vehicle: saline with Tween-80
[2] = endpoint: mean survival time, dose: 25.0 mg/kg/injection, schedule: Q01DX009 (ip), vehicle: saline with Tween-80
[3] = endpoint: mean survival time, dose: 25.0 mg/kg/injection, schedule: Q04DX003 (ip), vehicle: saline with Tween-80
[4] = endpoint: mean survival time, dose: 100.0 mg/kg/injection, schedule: Q04DX002 (ip), vehicle: saline with Tween-80
[5] = endpoint: mean survival time, dose: 200.0 mg/kg/injection, schedule: Q04DX002 (ip), vehicle: saline with Tween-80
[6] = endpoint: mean survival time, dose: 400.0 mg/kg/injection, schedule: Q04DX002 (ip), vehicle: saline with Tween-80
[7] = endpoint: mean survival time, dose: 100.0 mg/kg/injection, schedule: Q04DX003 (ip), vehicle: saline with Tween-80
[8] = endpoint: mean survival time, dose: 200.0 mg/kg/injection, schedule: Q04DX003 (ip), vehicle: saline with Tween-80
[9] = endpoint: mean survival time, dose: 400.0 mg/kg/injection, schedule: Q04DX003 (ip), vehicle: saline with Tween-80
[10] = endpoint: mean survival time, dose: 50.0 mg/kg/injection, schedule: Q04DX003 (ip), vehicle: other
[11] = endpoint: mean survival time, dose: 100.0 mg/kg/injection, schedule: Q04DX003 (ip), vehicle: other
[12] = endpoint: mean survival time, dose: 400.0 mg/kg/injection, schedule: Q04DX003 (ip), vehicle: other
[13] = endpoint: mean survival time, dose: 50.0 mg/kg/injection, schedule: Q01DX009 (ip), vehicle: saline with Tween-80
[14] = endpoint: mean survival time, dose: 100.0 mg/kg/injection, schedule: Q01DX009 (ip), vehicle: saline with Tween-80
[15] = endpoint: mean survival time, dose: 200.0 mg/kg/injection, schedule: Q01DX009 (ip), vehicle: saline with Tween-80
[16] = endpoint: mean survival time, dose: 400.0 mg/kg/injection, schedule: Q01DX009 (ip), vehicle: saline with Tween-80
[17] = endpoint: mean survival time, dose: 100.0 mg/kg/injection, schedule: Q04DX003 (ip), vehicle: saline
[18] = endpoint: mean survival time, dose: 200.0 mg/kg/injection, schedule: Q04DX003 (ip), vehicle: saline
[19] = endpoint: mean survival time, dose: 400.0 mg/kg/injection, schedule: Q04DX003 (ip), vehicle: saline

Structure (SMILES): O=C1C=CC(=O)N1CN1CCOCC1
- T/C (endpoint: mean survival time, dose: 4.37 mg/kg/injection, schedule: Q01DX009 (ip), vehicle: saline): 103 % of control
- T/C (endpoint: mean survival time, dose: 8.75 mg/kg/injection, schedule: Q01DX009 (ip), vehicle: saline): 91 % of control
- T/C (endpoint: mean survival time, dose: 12.5 mg/kg/injection, schedule: Q04DX003 (ip), vehicle: saline): 95 % of control

Structure (SMILES): Nc1nc(N)c2cc(CCc3ccccc3)ccc2n1
- T/C (endpoint: mean survival time, dose: 6.25 mg/kg/injection, schedule: Q01DX009 (ip), vehicle: saline with Tween-80): 105 % of control
- T/C (endpoint: mean survival time, dose: 6.25 mg/kg/injection, schedule: Q04DX003 (ip), vehicle: saline with Tween-80): 98 % of control
- T/C [1]: 100 % of control
- T/C (endpoint: mean survival time, dose: 12.5 mg/kg/injection, schedule: Q04DX003 (ip), vehicle: saline with Tween-80): 98 % of control
- T/C [2]: 104 % of control
- T/C [3]: 98 % of control
- T/C (endpoint: mean survival time, dose: 50.0 mg/kg/injection, schedule: Q01DX009 (ip), vehicle: Klucel (hydroxypropylcellulose) (HPC)): 106 % of control

Structure (SMILES): [O-]/[N+](=C\Cc1ccccc1)c1ccccc1
- T/C [4]: 90 % of control
- T/C [5]: 87 % of control
- T/C [6]: 90 % of control

Structure (SMILES): Cc1ccc(SCc2c(COc3ccc(Cl)cc3)sc3ccc(Cl)cc23)cc1
- T/C [7]: 92 % of control
- T/C [8]: 92 % of control
- T/C [9]: 94 % of control

Structure (SMILES): Cc1ccc(N/N=C/C(=O)O)cc1
- T/C (endpoint: mean survival time, dose: 12.5 mg/kg/injection, schedule: Q04DX003 (ip), vehicle: other): 101 % of control
- T/C (endpoint: mean survival time, dose: 25.0 mg/kg/injection, schedule: Q04DX003 (ip), vehicle: other): 101 % of control
- T/C [10]: 97 % of control
- T/C [11]: 95 % of control
- T/C [12]: 94 % of control

Structure (SMILES): CN(C)c1ccc(/C=N/NC(=O)CNC(=O)Nc2cccc(C(F)(F)F)c2)c(Cl)c1
- T/C [13]: 88 % of control
- T/C [14]: 88 % of control
- T/C [15]: 88 % of control

Structure (SMILES): CC(=O)c1ccc(Br)c([N+](=O)[O-])c1
- T/C (endpoint: mean survival time, dose: 100.0 mg/kg/injection, schedule: Q01DX009 (ip), vehicle: Klucel (hydroxypropylcellulose) (HPC)): 102 % of control
- T/C (endpoint: mean survival time, dose: 100.0 mg/kg/injection, schedule: Q04DX003 (ip), vehicle: Klucel (hydroxypropylcellulose) (HPC)): 96 % of control
- T/C (endpoint: mean survival time, dose: 200.0 mg/kg/injection, schedule: Q01DX009 (ip), vehicle: Klucel (hydroxypropylcellulose) (HPC)): 98 % of control
- T/C (endpoint: mean survival time, dose: 200.0 mg/kg/injection, schedule: Q04DX003 (ip), vehicle: Klucel (hydroxypropylcellulose) (HPC)): 100 % of control
- T/C (endpoint: mean survival time, dose: 400.0 mg/kg/injection, schedule: Q01DX009 (ip), vehicle: Klucel (hydroxypropylcellulose) (HPC)): 102 % of control
- T/C (endpoint: mean survival time, dose: 400.0 mg/kg/injection, schedule: Q04DX003 (ip), vehicle: Klucel (hydroxypropylcellulose) (HPC)): 105 % of control

Structure (SMILES): O=C1c2ccccc2C(=O)c2c(O)c(Cc3ccccn3)cc(O)c21
- T/C (endpoint: mean survival time, dose: 100.0 mg/kg/injection, schedule: Q01DX009 (ip), vehicle: saline sonified): 96 % of control
- T/C (endpoint: mean survival time, dose: 200.0 mg/kg/injection, schedule: Q01DX009 (ip), vehicle: saline sonified): 94 % of control
- T/C (endpoint: mean survival time, dose: 400.0 mg/kg/injection, schedule: Q01DX009 (ip), vehicle: saline sonified): 98 % of control

Structure (SMILES): O=[N+]([O-])c1ccc(/C=C/C=C/c2ccc(Cl)c(S(=O)(=O)F)c2)c(Cl)c1
- T/C [14]: 97 % of control
- T/C [7]: 102 % of control
- T/C [15]: 103 % of control
- T/C [8]: 102 % of control
- T/C [16]: 106 % of control
- T/C [9]: 102 % of control

Structure (SMILES): Nc1ncnc(N)c1NC(=O)c1ccc(-c2ccccc2)cc1
- T/C [3]: 92 % of control
- T/C (endpoint: mean survival time, dose: 50.0 mg/kg/injection, schedule: Q04DX003 (ip), vehicle: saline with Tween-80): 94 % of control
- T/C [7]: 103 % of control

Structure (SMILES): COC(=O)C1C2CC(O)C(C2)C1C(=O)OC (configuration not stated)
- T/C [1]: 97 % of control
- T/C [2]: 101 % of control
- T/C [13]: 104 % of control

Structure (SMILES): Cc1ccc(S(=O)(=O)Oc2cc([N+](=O)[O-])ccc2N)cc1
- T/C [17]: 95 % of control
- T/C [18]: 100 % of control
- T/C [19]: 103 % of control

Structure (SMILES): CCc1ccc(C#N)cc1O
- T/C [14]: 102 % of control
- T/C [7]: 96 % of control
- T/C [15]: 98 % of control
- T/C [8]: 100 % of control
- T/C [16]: 96 % of control
- T/C [9]: 100 % of control

Structure (SMILES): CCNC(C)(C)C(SSSC(c1ccc(C(F)(F)F)cc1)C(C)(C)NCC)c1ccc(C(F)(F)F)cc1 (configuration not stated)
- T/C (endpoint: mean survival time, dose: 100.0 mg/kg/injection, schedule: Q01DX009 (ip), vehicle: saline): 90 % of control

Structure (SMILES): CC(=O)Nc1nc(Br)c2ccccc2c1-c1ccc(N)cc1
- T/C [10]: 97 % of control
- T/C [11]: 94 % of control
- T/C (endpoint: mean survival time, dose: 200.0 mg/kg/injection, schedule: Q04DX003 (ip), vehicle: other): 94 % of control
- T/C [12]: 102 % of control

Structure (SMILES): CNC(=O)Nc1ccccc1OS(=O)(=O)N(C)C
- T/C [7]: 97 % of control
- T/C [8]: 104 % of control
- T/C [9]: 104 % of control

Structure (SMILES): O=C(CCN1CCCCC1)c1ccc(C(F)(F)F)cc1
- T/C (endpoint: mean survival time, dose: 3.13 mg/kg/injection, schedule: Q01DX009 (ip), vehicle: water): 90 % of control
- T/C (endpoint: mean survival time, dose: 6.25 mg/kg/injection, schedule: Q01DX009 (ip), vehicle: water): 90 % of control

Structure (SMILES): CC(=O)OC(CNCC(=O)O)C(Cl)(Cl)Cl (configuration not stated)
- T/C [7]: 102 % of control
- T/C [8]: 98 % of control
- T/C [9]: 98 % of control

Structure (SMILES): Cc1ccc(NC(=O)/C=C/C(=O)O)cc1C
- T/C [13]: 95 % of control
- T/C [14]: 101 % of control
- T/C [15]: 105 % of control

Structure (SMILES): COC12C(COC(N)=O)C3=C(C(=O)C(C)=C(N4CCN(C)CC4)C3=O)N1CC1NC12 (configuration not stated)
- T/C (endpoint: median survival time, dose: 1.5 mg/kg/injection, schedule: Q01DX001 (ip), vehicle: water): 155 % of control
- T/C (endpoint: median survival time, dose: 3.0 mg/kg/injection, schedule: Q01DX001 (ip), vehicle: water): 124 % of control
- T/C (endpoint: median survival time, dose: 6.0 mg/kg/injection, schedule: Q01DX001 (ip), vehicle: water): 87 % of control
- T/C (endpoint: median survival time, dose: 375.0 micrograms/kg/injection, schedule: Q01DX001 (ip), vehicle: water): 102 % of control and 106 % of control
- T/C (endpoint: median survival time, dose: 750.0 micrograms/kg/injection, schedule: Q01DX001 (ip), vehicle: water): 90 % of control and 102 % of control
- T/C (endpoint: median survival time, dose: 1500.0 micrograms/kg/injection, schedule: Q01DX001 (ip), vehicle: water): 101 % of control and 106 % of control
- T/C (endpoint: median survival time, dose: 3000.0 micrograms/kg/injection, schedule: Q01DX001 (ip), vehicle: water): 94 % of control and 106 % of control
- T/C (endpoint: median survival time, dose: 6000.0 micrograms/kg/injection, schedule: Q01DX001 (ip), vehicle: water): 102 % of control and 105 % of control

Structure (SMILES): COc1ccc2cc1Oc1ccc(cc1)C[C@@H]1c3cc(c(OC)cc3CCN1C)Oc1c(OC)c(OC)cc3c1[C@H](C2)N(C)CC3
- T/C (endpoint: mean survival time, dose: 50.0 mg/kg/injection, schedule: Q04DX002 (ip), vehicle: saline with Tween-80): 94 % of control
- T/C [4]: 94 % of control
- T/C [5]: 94 % of control
- T/C [6]: 90 % of control

Structure (SMILES): C[C@]12CCCC[C@@H]1CC[C@@H]1[C@@H]2[C@@H](O)C[C@]2(C)[C@@H](O)CC[C@@H]12
- T/C [7]: 93 % of control
- T/C [8]: 101 % of control

Structure (SMILES): O=c1cc[nH]cc1
- T/C [14]: 94 % of control
- T/C [17]: 103 % of control
- T/C [15]: 100 % of control
- T/C [18]: 97 % of control
- T/C [16]: 96 % of control
- T/C [19]: 95 % of control

Structure (SMILES): O=c1oc2c(ccc3ccccc32)c(O)c1-c1ccccc1
- T/C [13]: 103 % of control
- T/C [14]: 103 % of control
